This note sets out measurements from patent publication US20220362299A1, “ENGINEERED NATURAL KILLER CELLS AND METHODS FOR USING THE SAME IN IMMUNOTHERAPY AND AUTOPHAGY INHIBITON TECHNIQUES” (Purdue Research Foundation, priority 2019, published 2022).

Test [1] deals with GBM43 cells. Nature of the test: GBM43 cell viability after CQ treatment (CCK-8). The format is cell-based, human. The following applies: 24 h. As to the method:
Alternatively, autophagy was inhibited pharmacologically via treatment with chloroquine (CQ), a common FDA-approved autophagy inhibitor (see FIG. 11). These targeting approaches were tested on both NK cell infiltration and effector functions. For this approach, GBM43 cells were treated with different concentrations of CQ. To determine in vitro cell viability in response to CQ, GBM43 cells were seeded in 96-well plates at a density of 1×10^4 cells/well. After overnight culture, the cells were treated with different concentrations of CQ and incubated for another 24 hours. The cell viability was then determined with CCK-8 assay analysis.

Test [2] relates to GBM43 cells. Briefly: ELISA of CCL5 and CXCL10 in supernatant of GBM43 cells. The following applies: CQ 50 μM, 24 h. The test is classed as cell-based, human. The source says:
To evaluate changes in the protein levels of these chemokines and gain more insight into the underlying molecular mechanisms, chemokine concentrations were quantified in the conditioned media of CQ-treated GBM43 cells using ELISA in absence and presence of various pharmacological inhibitors driving signaling pathways for these chemokines. This included the PI3K inhibitor LY294002, NF-κB inhibitor BAY11-7082 and JNK inhibitor SP600125.
More specifically, to measure secreted CCL5 and CXCL10, GBM43 cells were treated with CQ at a final concentration of 50 μM in presence or absence of various small molecule inhibitors, including LY294002, BAY11-7082 and SP600125 for 24 hours. Supernatants were collected and the levels of CCL5 and CXCL10 were quantified using Human CCL5 and CXCL10 Biolegend-ELISA MAX™ Deluxe Sets according to the manufacturer's directions. To look at the levels of multiple chemokines secretion from GBM43 cells, the cell culture supernatants were also collected and all the selected targets were determined with the chemokine array provided by Eve Technologies (Calgary, Canada).
(In general: In an ELISA, binding on a coated surface is turned into a signal by an enzyme label.)

Test [3] has as its system GBM43 cells. Nature of the test: Surface expression of NKG2DL, CD73 and GD2 on GBM43 cells after CQ (flow cytometry). The format is cell-based, human. The following applies: 24 h. As to the method: In addition to the increase in NK cell intratumoral infiltration, NK2G2DL expression (MFI and percentage) on GBM43 cells after 24 hours of treatment with various concentrations of CQ was evaluated.

Test [4] relates to GBM43 cells. Nature of the test: Subcutaneous GBM43 xenograft model. The test is classed as in vivo, NSG mice. Here is the method:
Subcutaneous GBM xenografts were established by inoculating NSG mice with 3×10^6 GBM43 cells in the right flank. Ten days later, when tumors reached a volume of about 80 mm^3, mice were randomly assigned to 5 groups (n=4/group) and treated according to one of the following protocols: (1) PBS only; (2) intravenous (IV) injection of 5×10^6 pNK cells alone; (3) intravenous (IV) injection of 5×10^6 CD73.mCAR-pNK cells alone (Construct 1); (4) intraperitoneal (IP) injection of CQ (50 mg/kg) alone. NK cells were administered once a week for three weeks. The mice receiving adoptive NK cells therapy (groups 2 and 3) also received IL-15 (0.5 μg/mice) by IP injection every 3-4 days. Tumor growth was followed by caliper measurements and tumor volumes were calculated using the formula: V=0.52×L×W×H as described above. Body weights of the mice were recorded throughout the treatment. At the end of the therapy, the mice were sacrificed and tumors were harvested for histologic (IHC/IF) analyses.
Immunohistochemistry (IHC) and immunofluorescence (IF) staining were carried out at the Histology Research Laboratory at the Purdue University College of Veterinary Medicine (West Lafayette, Ind.). Briefly, the tumors were fixed in 10% neutral-buffered formalin, embedded in paraffin, and cut into 3-5 μm sections.
CCL5 and CXCL10 expression in the tumors were detected through the staining using human CCL5/RANTES antibody and CXCL10 antibody respectively. The staining was evaluated based on the intensity (weak=1, moderate=2, and high=3) of chemokine immunostaining and the density (0%=0, 1-40%=1, 41-75%=2, >76%=3) of positive tumor cells. The final score of each sample was multiplied by the intensity and density.
For subcutaneous GBM43 xenografts, NK cell infiltration was investigated by IF staining performed with the following stains: Protein L (Alexa 647, far red), NKp46 (Alexa 488, green) and DAPI nuclear counterstain. CCL5 and CXCL10 expression were evaluated by IHC staining as described above. CD73 expression in the tumors was detected through the staining using human CD73 antibody.
The treatment schedule is summarized in FIG. 17, subpart A. Briefly, 3×10^6 GBM43 cells were subcutaneously (SC) implanted into the right flank of the mice (Day 0). 10 days later (Day 10), mice in the CQ group were intraperitoneally (IP) injected with CQ at 50 mg/kg for 3 weeks, once a week. One day later (Day 11), the mice in pNK and CD73.mCAR-pNK groups were treated with 5×10^6 adoptively-transferred pNK or CD73.mCAR-pNK cells intravenously (IV), once a week for 3 weeks. Starting on the day of the first injection of NK cells, all mice received 0.5 μg of IL-15 once every 3-4 days IP.

By IC50 is commonly meant the concentration needed to halve the response being measured. Turning to Chloroquine diphosphate salt [CQ], the half-maximal inhibitory concentration (IC50) in the test with GBM43 cells [1] amounted to 67.1 µM. Moreover, in the test on GBM43 cells [2], the “secreted CCL5 vs untreated control cells” value is recorded as “significantly higher amounts” and the “secreted CXCL10 vs untreated control cells” value is recorded as “significantly higher amounts”. Moreover, the “expression of CD73 (MFI) on GBM43 cells” value in the test with GBM43 cells [3] (CQ 6.25 μM) was ~70 % of control. Also, the “expression of GD2 (MFI) on GBM43 cells” value in the test on GBM43 cells [3] (CQ 50 μM or higher) is given as “decreased”. Moreover, the “NKG2DL expression (% and MFI) on GBM43 cells” value in the test on GBM43 cells [3] (CQ at various concentrations) was “increased significantly”. Also, the “percentage expression (%) of GD2 on GBM43 cells” value in the test with GBM43 cells [3] (CQ up to 100 μM then constant, control cells ~58%) is listed as ~46%. The mean tumor volume in the test on GBM43 cells [4] (NK cells 5×10^6 IV once a week for 3 weeks, CQ 50 mg/kg IP, PBS group 1475) is given as 953.25 mm^3. In the test on GBM43 cells [4] (mouse, in vivo), the “CCL5 in tumor tissues (IHC)” value was “significantly higher presence” and the “CXCL10 in tumor tissues (IHC)” value is “significantly higher presence”. This substance showed a mean tumor weight in the test on GBM43 cells [4] (necropsy day 28 post-start of treatment, PBS group 2.31) of 1.16 g. Also, the “expression of CD73 on tumors (IHC)” value with GBM43 cells [4] (vs other treatment groups) is “lower level”.
